Reference: patent US11168088B2 (SHANGHAI HAIYAN PHARMACEUTICAL TECHNOLOGY CO., LTD., priority 2016, dated 2021)
pIC50: −log10 of the molar value.

Legend:
Type in all cases: biochemical
[1] = molecular target: CDK4 (Homo sapiens (Human), UniProt P11802); test: In vitro kinase test (LANCE Ultra), CDK4
From the text: (§1) Recombinant CDK1/CCNB1 and CDK9/CCNT were purchased from BPS; CDK2/CCNA1, CDK4/CCND1 and CDK6/CCND1 were purchased from Invitrogen; CDK4/CycD3 and CDK6/CycD3 were purchased from Carna. Adenosine triphosphate (ATP) was purchased from Life tech. Substrate Ulight-4EBP1 and the corresponding detection antibody were purchased from Perkinelmer. The detection system was Perkinelmer's LANCE Ultra system.
(§2) In the kinase test, a compound to be tested was 1:3 diluted for 8 gradient points, added into a reaction plate, and then added an appropriate amount of recoinbinase. A buffer [50 mM HEPES […], 10 mM MgCl2, 3 mM MnCl2, 1 mM EGTA, 0.01% Tween-20, 1 mM TCEP] containing ATP/Ulight-4EBP1 premix with predetermined concentration was subsequently added, and the kinase reaction was started at room temperature. A test solution pre-mixed with 10 mM EDTA and detection antibody was added after a suitable reaction time, and then the fluorescence value was read on Tecan infinite pro after reacting for 1 hour at room temperature. The IC50 was calculated using a four-factor model fitting in a XLfit software.

[2] = molecular target: CDK6 (Homo sapiens (Human), UniProt Q00534); test: In vitro kinase test (LANCE Ultra), CDK6
Chain of CDK6 (Q00534 whole entry, looked up): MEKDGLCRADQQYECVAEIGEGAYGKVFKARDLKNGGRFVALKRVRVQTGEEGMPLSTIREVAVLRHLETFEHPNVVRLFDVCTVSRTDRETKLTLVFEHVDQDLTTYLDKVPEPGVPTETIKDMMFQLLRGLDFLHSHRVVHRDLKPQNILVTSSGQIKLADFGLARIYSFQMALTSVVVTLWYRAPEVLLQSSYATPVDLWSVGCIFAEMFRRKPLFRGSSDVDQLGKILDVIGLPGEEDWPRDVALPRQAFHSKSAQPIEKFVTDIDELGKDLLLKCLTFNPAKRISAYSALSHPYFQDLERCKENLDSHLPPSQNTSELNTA
Chain of CDK6 (P24385 whole entry partner, looked up): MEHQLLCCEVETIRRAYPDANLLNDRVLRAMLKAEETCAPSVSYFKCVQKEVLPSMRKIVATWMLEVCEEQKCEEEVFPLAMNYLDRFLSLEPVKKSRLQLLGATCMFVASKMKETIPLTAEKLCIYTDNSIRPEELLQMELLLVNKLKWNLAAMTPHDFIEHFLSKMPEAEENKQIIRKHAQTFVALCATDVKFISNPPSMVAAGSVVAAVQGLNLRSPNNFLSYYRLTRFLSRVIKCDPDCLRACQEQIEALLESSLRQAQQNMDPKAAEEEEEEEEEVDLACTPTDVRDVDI
From the text: as §1, §2

[3] = molecular target: CDK2 (Homo sapiens (Human), UniProt P24941); test: In vitro kinase test (LANCE Ultra), CDK2
From the text: as §1, §2

[4] = molecular target: CDK1 (Homo sapiens (Human), UniProt P06493); test: In vitro kinase test (LANCE Ultra), CDK1
Chain of CDK1 (P06493 whole entry): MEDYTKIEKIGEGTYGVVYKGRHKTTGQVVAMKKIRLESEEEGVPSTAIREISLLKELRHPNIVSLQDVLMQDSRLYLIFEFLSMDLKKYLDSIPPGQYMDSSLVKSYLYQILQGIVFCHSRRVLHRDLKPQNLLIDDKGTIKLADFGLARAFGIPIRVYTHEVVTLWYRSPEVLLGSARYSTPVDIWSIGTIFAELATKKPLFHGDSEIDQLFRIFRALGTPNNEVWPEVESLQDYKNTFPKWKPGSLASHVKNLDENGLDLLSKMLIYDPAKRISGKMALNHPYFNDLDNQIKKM
Chain of CDK1 (P14635 whole entry partner): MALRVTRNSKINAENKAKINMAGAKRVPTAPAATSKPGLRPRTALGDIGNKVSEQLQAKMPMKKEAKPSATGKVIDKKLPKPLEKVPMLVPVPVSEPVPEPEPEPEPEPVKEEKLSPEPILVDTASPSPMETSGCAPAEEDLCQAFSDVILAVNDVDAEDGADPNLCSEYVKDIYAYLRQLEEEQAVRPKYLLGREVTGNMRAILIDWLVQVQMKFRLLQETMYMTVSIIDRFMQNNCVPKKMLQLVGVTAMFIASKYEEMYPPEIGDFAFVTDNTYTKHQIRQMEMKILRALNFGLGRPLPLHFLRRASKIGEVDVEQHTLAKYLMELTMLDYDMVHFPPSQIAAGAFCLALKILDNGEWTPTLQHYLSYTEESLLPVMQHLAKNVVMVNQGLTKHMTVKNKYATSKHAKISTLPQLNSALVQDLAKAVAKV
From the text: as §1, §2

Chain of CDK4 (P11802 whole entry, looked up): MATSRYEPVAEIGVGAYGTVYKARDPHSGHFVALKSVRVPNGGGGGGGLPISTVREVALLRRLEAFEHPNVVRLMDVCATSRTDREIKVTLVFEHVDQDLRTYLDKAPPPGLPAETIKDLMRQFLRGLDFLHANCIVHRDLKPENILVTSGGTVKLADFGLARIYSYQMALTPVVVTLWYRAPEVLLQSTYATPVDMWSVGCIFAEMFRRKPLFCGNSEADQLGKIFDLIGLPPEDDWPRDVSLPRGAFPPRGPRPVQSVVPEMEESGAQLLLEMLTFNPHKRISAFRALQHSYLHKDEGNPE
Chain of CDK4 (P24385 whole entry partner, looked up): as the sequence (P24385 whole entry partner, looked up) above

| inhibitory activity against CDK4 (in words) [1] | inhibitory activity against CDK6 (in words) [2] | inhibitory activity against CDK2 (in words) [3] | inhibitory activity against CDK1 (in words) [4] | pIC50 [1] | pIC50 [2] | pIC50 [4] | pIC50 [3] | Compound |
| --- | --- | --- | --- | --- | --- | --- | --- | --- |
| strong inhibitory activity | strong inhibitory activity | strong inhibitory activity | strong inhibitory activity | – | – | – | – | Cc1c2c(nn1C)CCc1cnc(Nc3ccc(N4CCN(C)CC4)cc3)nc1-2 [Compound D1, reference compound] |
| – | – | – | – | 8.40 | 7.42 | 6.37 | – | CCN1CCN(Cc2ccc(Nc3ncc4c(n3)-c3c(nn(CC)c3C(C)C)CC4)nc2)CC1 [Compound P-2] |
| – | – | – | – | 8.30 | 7.48 | 5.10 | 5.32 | CCn1nc2c(c1C(C)C)-c1nc(Nc3ccc(N4CCNCC4)cn3)ncc1CC2 [Compound P-4, 8-ethyl-9-isopropyl-N-(5-(piperazin-1-yl)pyridin-2-yl)-6,8-dihydro-5H-pyrazolo[3,4-H]quinazolin-2-amine] |
| – | – | – | – | 7.66 | 6.59 | 5.27 | – | CCc1nc2c(n1C(C)C)-c1nc(Nc3ccc(CN4CCN(CC)CC4)cn3)ncc1C2 [Compound P-5] |
| – | – | – | – | 8.22 | 7.38 | 5.07 | 5.01 | CCN1CCN(c2ccc(Nc3ncc4c(n3)-c3c(nn(C)c3C(C)C)C4)nc2)CC1 [Compound P-7] |
| – | – | – | – | 8.00 | 6.79 | < 5.00 | 5.08 | CC(C)c1c2c(nn1C)Cc1cnc(Nc3ccc(N4CCNCC4)cn3)nc1-2 [Compound P-8] |
| – | – | – | – | 7.80 | 6.88 | – | – | CCN1CCN(Cc2ccc(Nc3ncc4c(n3)-c3c(cnn3C(C)C)CC4)nc2)CC1 [Compound P-10] |
| – | – | – | – | 7.37 | 6.78 | – | – | Cc1nc2c(n1C1CC1)-c1nc(Nc3ccc(N4CCNCC4)cn3)ncc1C2 [Compound P-11] |
| – | – | – | – | 8.10 | 7.44 | < 5.00 | – | CCN1CCN(c2ccc(Nc3ncc4c(n3)-c3c(cnn3C(C)C)CC4)nc2)CC1 [Compound P-12] |
| – | – | – | – | 7.64 | 7.37 | 5.25 | 5.08 | Cc1nc2c(n1C1CCCC1)-c1nc(Nc3ccc(N4CCNCC4)cn3)ncc1C2 [Compound P-13] |
| – | – | – | – | 8.30 | 7.70 | 5.99 | 6.28 | CC(C)c1c2c(nn1C)CCc1cnc(Nc3ccc(N4CCNCC4)cn3)nc1-2 [Compound P-14, 9-isopropyl-8-methyl-N-(5-(piperazin-1-yl)pyridin-2-yl)-6,8-dihydro-5H-pyrazolo[3,4-H]quinazolin-2-amine] |
| – | – | – | – | 7.46 | 6.15 | 5.20 | 5.30 | CCc1nc2c(n1CC)-c1nc(Nc3ccc(N4CCNCC4)cn3)ncc1C2 [Compound P-21] |
| – | – | – | – | 7.70 | 7.37 | – | – | CCc1nc2c(n1C(C)C)-c1nc(Nc3ccc(N4CCNCC4)cn3)ncc1C2 [Compound P-22] |
| – | – | – | – | 8.22 | 7.07 | 5.56 | 5.88 | CCc1nc2c(n1C(C)C)-c1nc(Nc3ccc(N4CCNCC4)cn3)ncc1CC2 [Compound P-23, 2-ethyl-1-isopropyl-N-(5-(piperazin-1-yl)pyridin-2-yl)-4,5-dihydro-1H-imidazo[4,5-H]quinazolin-8-amine] |
| – | – | – | – | 8.52 | 7.96 | 5.45 | 6.09 | Cc1nc2c(n1C(C)C)-c1nc(Nc3ccc(N4CCNCC4)cn3)ncc1CC2 [Compound P-24, 1-isopropyl-2-methyl-N-(5-(piperazin-1-yl)pyridin-2-yl)-4,5-dihydro-1H-imidazo[4,5-H]quinazolin-8-amine] |
| – | – | – | – | 8.05 | 7.51 | < 5.00 | – | CC(C)n1ncc2c1-c1nc(Nc3ccc(N4CCNCC4)cn3)ncc1CC2 [Compound P-25, 1-isopropyl-N-(5-(piperazin-1-yl)pyridin-2-yl)-4,5-dihydro-1H-pyrazolo[4,3H]quinazolin-8-amine] |
| – | – | – | – | 8.22 | 8.10 | – | – | CC(C)c1c2c(nn1C(F)F)Cc1cnc(Nc3ccc(N4CCNCC4)cn3)nc1-2 [Compound P-27] |
| – | – | – | – | 7.39 | 6.92 | – | – | Cc1nc2c(n1CC1CC1)-c1nc(Nc3ccc(N4CCNCC4)cn3)ncc1C2 [Compound P-28] |
| – | – | – | – | 8.15 | 7.77 | < 6.00 | 6.34 | CC(C)c1[nH]nc2c1-c1nc(Nc3ccc(N4CCNCC4)cn3)ncc1CC2 [Compound P-29, 9-isopropyl-N-(5-(piperazin-1-yl)pyridin-2-yl)-6,8-dihydro-5H-pyrazolo[3,4-H]quinazolin-2-amine] |
| – | – | – | – | 7.64 | 6.40 | 6.19 | 5.76 | CCc1nc2c(n1C1CCCC1)-c1nc(Nc3ccc(N4CCNCC4)cn3)ncc1C2 [Compound P-34] |
| – | – | – | – | 7.13 | 6.60 | – | – | c1cc(Nc2ncc3c(n2)-c2c(cnn2C2CCCCC2)CC3)ncc1N1CCNCC1 [Compound P-35] |

| inhibitory activity against CDK4 (in words) [1] | inhibitory activity against CDK6 (in words) [2] | inhibitory activity against CDK2 (in words) [3] | inhibitory activity against CDK1 (in words) [4] | pIC50 [1] | pIC50 [2] | pIC50 [4] | pIC50 [3] | Compound |
| --- | --- | --- | --- | --- | --- | --- | --- | --- |
| – | – | – | – | 6.86 | 6.15 | – | – | c1cc(Nc2ncc3c(n2)-c2nn(C4CCCC4)cc2CC3)ncc1N1CCNCC1 [Compound P-36] |
| – | – | – | – | 7.39 | 6.44 | – | – | c1cc(Nc2ncc3c(n2)-c2c(cnn2C2CCOC2)CC3)ncc1N1CCNCC1 (centres unmarked) [Compound P-37] |
| – | – | – | – | 7.48 | 6.74 | 5.98 | 5.63 | c1cc(Nc2ncc3c(n2)-c2c(nc(C4CC4)n2C2CCCC2)C3)ncc1N1CCNCC1 [Compound P-39] |
| – | – | – | – | 8.30 | 7.36 | – | – | CCN1CCN(Cc2ccc(Nc3ncc4c(n3)-c3c(nc(C)n3C(C)C)CC4)nc2)CC1 [Compound P-41] |
| – | – | – | – | 7.77 | 6.65 | 5.36 | 5.89 | CC(C)c1c2c(nn1C)C(C)(C)c1cnc(Nc3ccc(N4CCNCC4)cn3)nc1-2 [Compound P-42] |
| – | – | – | – | 8.05 | 7.34 | – | – | Cc1nn(C2CCCC2)c2c1CCc1cnc(Nc3ccc(N4CCNCC4)cn3)nc1-2 [Compound P-43] |
| – | – | – | – | 6.76 | 6.38 | – | – | CC(C)c1c2c(nn1C)CC(C)(C)c1cnc(Nc3ccc(N4CCNCC4)cn3)nc1-2 [Compound P-44] |
| – | – | – | – | 7.43 | 6.35 | – | – | CCN1CCN(Cc2ccc(Nc3ncc4c(n3)-c3c(nn(CC)c3C(C)C)C4)nc2)CC1 [Compound P-45] |
| – | – | – | – | 8.10 | 7.46 | 6.09 | 6.33 | CCn1nc2c(c1C(C)C)-c1nc(Nc3ccc(N4CCNCC4)cn3)ncc1CC2(C)C [Compound P-46] |
| – | – | – | – | 8.30 | 7.34 | 6.15 | 6.29 | CC(C)c1c2c(nn1C)C(C)c1cnc(Nc3ccc(N4CCNCC4)cn3)nc1-2 (centres unmarked) [Compound P-47] |
| – | – | – | – | 7.01 | 6.05 | – | – | CCn1nc2c(c1C(C)C)-c1nc(Nc3ccc(N4CCNCC4)cn3)ncc1C(C)(C)C2 [Compound P-48] |
| – | – | – | – | 8.15 | 7.15 | – | – | CCn1nc2c(c1C(C)C)-c1nc(Nc3ccc(N4CCNCC4)cn3)ncc1OC2 [Compound P-49] |
| – | – | – | – | 8.22 | 7.40 | – | – | CCN1CCN(Cc2ccc(Nc3ncc4c(n3)-c3c(nn(CC)c3C(C)C)C(C)(C)C4)nc2)CC1 [Compound P-50] |
| – | – | – | – | 7.38 | 6.93 | – | – | CC(C)n1ncc2c1-c1nc(Nc3ccc(N4CCNCC4)cn3)ncc1CC2(C)C [Compound P-51] |
| – | – | – | – | 8.22 | 7.48 | – | – | CC(C)n1nc(C#N)c2c1-c1nc(Nc3ccc(N4CCNCC4)cn3)ncc1CC2 [Compound P-52, 1-isopropyl-8-(5-(piperazin-1-yl)pyridin-2-ylamino)-4,5-dihydro-1H-pyrazolo[4,3-H]quinazolin-3-carbonitrile] |
| – | – | – | – | 6.89 | 6.28 | – | – | CC(=O)C1(C)Cc2cnc(Nc3ccc(N4CCNCC4)cn3)nc2-c2c1nn(C)c2C(C)C (centres unmarked) [Compound P-55] |
| – | – | – | – | 6.99 | 6.08 | – | – | CC(C)c1c2c(nn1C)CC1(CC1)c1cnc(Nc3ccc(N4CCNCC4)cn3)nc1-2 [Compound P-56] |
| – | – | – | – | 6.80 | 6.12 | – | – | CC(C)c1c2c(nn1C)C(C)(C(C)O)Cc1cnc(Nc3ccc(N4CCNCC4)cn3)nc1-2 (centres unmarked) [Compound P-60, 1-(9-isopropyl-6,8-dimethyl-2-(5-(piperazin-1-yl)pyridin-2-ylamino)-6,8-dihydro-5H-pyrazolo[3,4-H]quinazolin-6-yl)ethanol] |
| – | – | – | – | 7.25 | 6.80 | – | – | CC(=O)C1(C)Cc2cnc(Nc3ccc(N4CCNCC4)cn3)nc2-c2c1ncn2C(C)C (centres unmarked) [Compound P-63] |
| – | – | – | – | 5.97 | < 5.52 | – | – | Cc1nc2sc3cnc(Nc4ccc(N5CCNCC5)cn4)nc3c2n1C(C)C [Compound P-65] |

| Compound | inhibitory activity against CDK4 (in words) [1] | inhibitory activity against CDK6 (in words) [2] | inhibitory activity against CDK2 (in words) [3] | inhibitory activity against CDK1 (in words) [4] | pIC50 [1] | pIC50 [2] | pIC50 [4] | pIC50 [3] |
| --- | --- | --- | --- | --- | --- | --- | --- | --- |
| CCc1nc2c(n1C(C)C)-c1nc(Nc3ccc(CN4CCN(CC)CC4)cn3)ncc1CC2 [Compound P-3] | – | – | – | – | 8.22 | 7.23 | 6.04 | 5.94 |
| c1cc(Nc2ncc3c(n2)-c2c(cnn2C2CCCC2)CC3)ncc1N1CCNCC1 [Compound P-9, 1-cyclopentyl-N-(5-(piperazin-1-yl)pyridin-2-yl)-4,5-dihydro-1H-pyrazolo[4,3H]quinazolin-8-amine] | – | – | – | – | 8.10 | 7.40 | 5.29 | 5.84 |
| CC(C)c1c2c(nn1C)COc1cnc(Nc3ccc(N4CCNCC4)cn3)nc1-2 [Compound P-30] | – | – | – | – | 8.05 | 7.47 | 6.07 | 6.12 |
